From patent US20170044208A1, “SELECTIVE GLUCOCORTICOID RECEPTOR LIGANDS” (The University of Manchester, priority 2013, published 2017)
Like-named read-outs stand apart in the source and are kept apart here.

Assays:
[1] = molecular target: T1, Glucocorticoid Receptor (GR) (Homo sapiens, UniProt P04150); test: Transactivation assay (MMTV-Luc reporter in HeLa cells); format: cell-based; conditions: for Emax / EC50: HeLa; for Emax: 16 h, read-out: TA Max %; for EC50: concentration for half-maximal transactivation, MMTV-Luc, 16 hours, mean, read-out: TA EC50; for TA %: comparison table, against maximal activation seen with dexamethasone
T1 construct: Cells were transfected the next day with MMTV-Luc (5 μg) and pGL4-hRLuc (0.1 μg); endogenous in cells; host or cells: HeLa
T1 sequence (P04150 1-777): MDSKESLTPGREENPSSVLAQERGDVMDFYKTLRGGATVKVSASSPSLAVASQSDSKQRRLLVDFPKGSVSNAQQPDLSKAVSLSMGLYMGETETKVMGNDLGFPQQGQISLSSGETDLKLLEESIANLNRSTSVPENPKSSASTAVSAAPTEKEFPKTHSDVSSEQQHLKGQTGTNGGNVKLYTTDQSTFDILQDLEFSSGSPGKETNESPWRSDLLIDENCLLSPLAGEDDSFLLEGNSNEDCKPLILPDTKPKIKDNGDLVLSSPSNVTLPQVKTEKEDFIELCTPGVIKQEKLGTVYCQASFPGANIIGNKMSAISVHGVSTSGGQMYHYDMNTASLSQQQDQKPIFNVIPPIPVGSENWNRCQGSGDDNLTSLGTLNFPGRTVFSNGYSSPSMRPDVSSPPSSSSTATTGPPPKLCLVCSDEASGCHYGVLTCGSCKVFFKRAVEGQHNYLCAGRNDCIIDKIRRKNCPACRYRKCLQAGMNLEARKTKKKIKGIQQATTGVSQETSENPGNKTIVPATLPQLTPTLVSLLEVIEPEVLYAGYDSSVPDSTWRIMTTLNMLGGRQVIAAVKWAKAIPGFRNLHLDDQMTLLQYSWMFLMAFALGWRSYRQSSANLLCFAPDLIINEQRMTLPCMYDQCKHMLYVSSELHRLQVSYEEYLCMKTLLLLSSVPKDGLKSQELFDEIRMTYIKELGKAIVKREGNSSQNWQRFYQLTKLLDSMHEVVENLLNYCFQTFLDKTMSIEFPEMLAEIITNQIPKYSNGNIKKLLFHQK
Protocol: (§1) HeLa cells were seeded at 80×10^4 cells/dish in 100 mm dishes. Cells were transfected the next day with MMTV-Luc (5 μg) and pGL4-hRLuc (0.1 μg), in 250 μL of Opti-MEM I using FuGENE HD (15 μL). After 24 hours, cells were trypsinized and seeded into 96-well plates at a density of 8-10×10^4 cells/mL.
Following overnight incubation to allow attachment, cells were treated with the required concentration of compounds, then further incubated for 16 hours. Media was aspirated and cells lysed in 40 μL of 1×PLB.
(§2) Firefly and Renilla luciferase activity was measured using the Dual Luciferase Reporter system following the manufacturer's protocol.
(§3) IC50 and EC50 values were calculated by using GraphPad Prism 5.0. Briefly, luminescence values for luciferase were normalised using the Renilla luminescence values. The normalised values were input into GraphPad Prism 5.0. Non-linear regression analysis was carried out using the “log(concentration) vs. response” equation of the software, with a Hill slope coefficient fixed at 1.
(§4) IC50 and EC50 values are mean values in nM of all IC50/EC50 values for the compound. Max % values are mean values of the Max% activity.

[2] = test system: NFkB; test: Transrepression assay (NFκB-LUC reporter in HeLa cells, TNF stimulated); format: cell-based; conditions: for Emax / IC50: Homo sapiens, HeLa; for Emax: 16 h, read-out: TR Max %; for TR %: maximal NFkB repression compared to Dexamethasone
Protocol: as §1, with “NFκB-LUC reporter” for “MMTV-Luc”, “0.25 mL” for “250 μL”, “in to 24-well” for “into 96-well”, “cells/mL. Following overnight incubation, cells were starved for a further 24 hours in DMEM.” for “cells/mL.”
On the day of the experiment, compounds were added to cells one hour prior to the addition of […] (0.5 ng/mL). After a further 16 hours, cells were washed twice with ice-cold PBS, then lysed with 100 μL of 1×PLB.
as §2, §3, §4

[3] = concentration for half-maximal repression of NFkB, TNF 0.5 ng/mL, 16 hours, mean, read-out: TR IC50
[4] = comparison table, half-maximal repression of NFkB, multiple experiments, read-out: IC50

Work on `C[C@@H]1C[C@H]2[C@@H]3CCC4=CC(=O)C=C[C@]4(C)[C@@]3(F)[C@@H](O)C[C@]2(C)[C@@]1(O)c1csc(N(C)C(=O)c2ccc(F)cc2)n1` [Compound 43] yielded an Emax [1] of 1.63%, an EC50 [1] of 86200 nM and an Emax [2] of 61%. It also gave an IC50 [2, 3] of 155 nM.

Compound `C[C@@H]1C[C@H]2[C@@H]3CCC4=CC(=O)C=C[C@]4(C)[C@@]3(F)[C@@H](O)C[C@]2(C)[C@@]1(O)C(=O)NCCCOc1ccc(C(F)(F)F)cc1` [Compound 9] has an Emax [1] of 15.1%, an EC50 [1] of 1110 nM and an Emax [2] of 80.5%. For the same compound, the IC50 [2, 3] was 25 nM.

Work on `COC(=O)c1ccc(OCCCNC(=O)[C@@]2(O)[C@H](C)C[C@H]3[C@@H]4CCC5=CC(=O)C=C[C@]5(C)[C@@]4(F)[C@@H](O)C[C@@]32C)cc1` [Compound 17] yielded an Emax [1] of 39.1%, a TA % [1] of 39% and an EC50 [1] of 832 nM. It also gave an Emax [2] of 82.3%, an IC50 [2, 4] of 1.19 nM and an IC50 [2, 3] of 1.19 nM. The TR % ([2]; comparison table) was 87%.

Compound `C[C@@H]1C[C@H]2[C@@H]3CCC4=CC(=O)C=C[C@]4(C)[C@@]3(F)[C@@H](O)C[C@]2(C)[C@@]1(O)C(=O)NCCCc1ccccc1O` [Compound 3] has an Emax [1] of 24.1%, an EC50 [1] of 1150 nM and an Emax [2] of 76%. The IC50 [2, 3] was 21.9 nM.

With `C[C@@H]1C[C@H]2[C@@H]3CCC4=CC(=O)C=C[C@]4(C)[C@@]3(F)[C@@H](O)C[C@]2(C)[C@@]1(O)c1csc(NC(=O)c2cccnc2)n1` [Compound 32] the Emax [1] was 0.03%, the EC50 [1] was 2230 nM and the Emax [2] was 28.5%. The IC50 [2, 3] was 55.2 nM.

`C[C@@H]1C[C@H]2[C@@H]3CCC4=CC(=O)C=C[C@]4(C)[C@@]3(F)[C@@H](O)C[C@]2(C)[C@@]1(O)C(=O)NCCOc1nc2ccccc2o1` [Compound 10] gave an Emax [1] of 4.79%, an EC50 [1] of 3390 nM and an Emax [2] of 55.1%. It also gave an IC50 [2, 3] of 35.4 nM.

Compound `C[C@@H]1C[C@H]2[C@@H]3CCC4=CC(=O)C=C[C@]4(C)[C@@]3(F)[C@@H](O)C[C@]2(C)[C@@]1(O)C(=O)NCCCc1cccc(F)c1` [Compound 14] has an Emax [1] of 36.6%, an EC50 [1] of 536 nM and an Emax [2] of 88.6%. For the same compound, the IC50 [2, 3] was 23.9 nM.

In the case of `C[C@@H]1C[C@H]2[C@@H]3CCC4=CC(=O)C=C[C@]4(C)[C@@]3(F)[C@@H](O)C[C@]2(C)[C@@]1(O)C(=O)NCCOc1ccccn1` [Compound 8], the Emax [1] is reported as 49.7%, the EC50 [1] is reported as 248 nM and the Emax [2] is reported as 95%. It also gave an IC50 [2, 3] of 5.69 nM.

`COc1ccc(OCCNC(=O)[C@@]2(O)[C@H](C)C[C@H]3[C@@H]4CCC5=CC(=O)C=C[C@]5(C)[C@@]4(F)[C@@H](O)C[C@@]32C)cc1` [Compound 7] gave an Emax [1] of 44%, a TA % [1] of 44% and an EC50 [1] of 294 nM. The Emax [2] was 97.3%, the IC50 [2, 4] was 1.22 nM and the IC50 [2, 3] was 19.4 nM. For the same compound, the TR % ([2]; comparison table) was 98%.

`COc1ccc(CNc2nc([C@@]3(O)[C@H](C)C[C@H]4[C@@H]5CCC6=CC(=O)C=C[C@]6(C)[C@@]5(F)[C@@H](O)C[C@@]43C)cs2)cc1` [Compound 42] gave an Emax [1] of 0.56%, an EC50 [1] of 392 nM and an Emax [2] of 51.1%. For the same compound, the IC50 [2, 3] was 199 nM.

`C[C@@H]1C[C@H]2[C@@H]3CCC4=CC(=O)C=C[C@]4(C)[C@@]3(F)[C@@H](O)C[C@]2(C)[C@@]1(O)c1csc(NC(=O)c2ccc(Cl)cc2)n1` [Compound 27] showed an Emax [1] of 5.89%, an EC50 [1] of 1640 nM and an Emax [2] of 49.7%. The IC50 [2, 3] was 10.9 nM.

Compound `C[C@@H]1C[C@H]2[C@@H]3CCC4=CC(=O)C=C[C@]4(C)[C@@]3(F)[C@@H](O)C[C@]2(C)[C@@]1(O)c1csc(NC(=O)c2ccccn2)n1` [Compound 40] has an Emax [1] of 1.34%, an EC50 [1] of 16900 nM and an Emax [2] of 19%. The IC50 [2, 3] was 8.34 nM.

In the case of `C[C@@H]1C[C@H]2[C@@H]3CCC4=CC(=O)C=C[C@]4(C)[C@@]3(F)[C@@H](O)C[C@]2(C)[C@@]1(O)c1csc(NC(=O)c2ccc(F)cc2)n1` [Compound 23], the Emax [1] is reported as 5.67%, the TA % [1] is reported as 6% and the EC50 [1] is reported as 1400 nM. For the same compound, the Emax [2] was 52.1%, the IC50 [2, 4] was 35.8 nM and the IC50 [2, 3] was 35.8 nM. It also gave a TR % ([2]; comparison table) of 52%.

`Cc1ccc(C(=O)Nc2nc([C@@]3(O)[C@H](C)C[C@H]4[C@@H]5CCC6=CC(=O)C=C[C@]6(C)[C@@]5(F)[C@@H](O)C[C@@]43C)cs2)cc1` [Compound 45] showed an Emax [1] of 5.74%, an EC50 [1] of 8480 nM and an Emax [2] of 42.3%. For the same compound, the IC50 [2, 3] was 20.2 nM.

Compound `C[C@@H]1C[C@H]2[C@@H]3CCC4=CC(=O)C=C[C@]4(C)[C@@]3(F)[C@@H](O)C[C@]2(C)[C@@]1(O)c1csc(NC(=O)c2cscn2)n1` [Compound 36] has an Emax [1] of 1.19%, an EC50 [1] of 5520 nM and an Emax [2] of 33.6%. The IC50 [2, 3] was 10.6 nM.

`C[C@@H]1C[C@H]2[C@@H]3CCC4=CC(=O)C=C[C@]4(C)[C@@]3(F)[C@@H](O)C[C@]2(C)[C@@]1(O)c1csc(NC(=O)c2ccc(C(F)(F)F)cc2)n1` [Compound 30] showed an Emax [1] of 7.43%, an EC50 [1] of 1410 nM and an Emax [2] of 41.3%. It also gave an IC50 [2, 3] of 35.5 nM.

Compound `C[C@@H]1C[C@H]2[C@@H]3CCC4=CC(=O)C=C[C@]4(C)[C@@]3(F)[C@@H](O)C[C@]2(C)[C@@]1(O)C(=O)NCCCOc1ccc(C(=O)O)cc1` [Compound 19] has an Emax [1] of 0.84%, an EC50 [1] of 406000 nM and an Emax [2] of 33.3%. The IC50 [2, 3] was 1450 nM.

Compound `C[C@@H]1C[C@H]2[C@@H]3CCC4=CC(=O)C=C[C@]4(C)[C@@]3(F)[C@@H](O)C[C@]2(C)[C@@]1(O)c1csc(NC(=O)c2cncs2)n1` [Compound 35] has an Emax [1] of 0.23%, an EC50 [1] of 4180 nM and an Emax [2] of 35.9%. The IC50 [2, 3] was 44.8 nM.

Work on `C[C@@H]1C[C@H]2[C@@H]3CCC4=CC(=O)C=C[C@]4(C)[C@@]3(F)[C@@H](O)C[C@]2(C)[C@@]1(O)c1csc(NC(=O)c2ccc(F)c(F)c2)n1` [Compound 44] yielded an Emax [1] of 14.6%, an EC50 [1] of 914 nM and an Emax [2] of 41.8%. The IC50 [2, 3] was 28.6 nM.

Work on `C[C@@H]1C[C@H]2[C@@H]3CCC4=CC(=O)C=C[C@]4(C)[C@@]3(F)[C@@H](O)C[C@]2(C)[C@@]1(O)c1csc(NC(=O)CCc2ccc(F)cc2)n1` [Compound 38] yielded an Emax [1] of 2.48%, an EC50 [1] of 24400 nM and an Emax [2] of 65.5%. It also gave an IC50 [2, 3] of 31.2 nM.

In the case of `C[C@@H]1C[C@H]2[C@@H]3CCC4=CC(=O)C=C[C@]4(C)[C@@]3(F)[C@@H](O)C[C@]2(C)[C@@]1(O)c1csc(NC(=O)c2ccncc2)n1` [Compound 31], the Emax [1] is reported as 0%, the Emax [2] is reported as 37.5% and the IC50 [2, 3] is reported as 11.2 nM.

Compound `C[C@@H]1C[C@H]2[C@@H]3CCC4=CC(=O)C=C[C@]4(C)[C@@]3(F)[C@@H](O)C[C@]2(C)[C@@]1(O)C(=O)NCCCc1ccccn1` [Compound 2] has an Emax [1] of 18.3%, an EC50 [1] of 1180 nM and an Emax [2] of 52.4%. It also gave an IC50 [2, 3] of 23.5 nM.

`COc1ccc(OCCCNC(=O)[C@@]2(O)[C@H](C)C[C@H]3[C@@H]4CCC5=CC(=O)C=C[C@]5(C)[C@@]4(F)[C@@H](O)C[C@@]32C)cc1OC` [Compound 16] was tested, and the Emax [1] was 21.2%, the EC50 [1] was 881 nM and the Emax [2] was 87.2%. It also gave an IC50 [2, 3] of 26.8 nM.

With `C[C@@H]1C[C@H]2[C@@H]3CCC4=CC(=O)C=C[C@]4(C)[C@@]3(F)[C@@H](O)C[C@]2(C)[C@@]1(O)C(=O)NCCOc1ccc(F)cc1` [Compound 5] the Emax [1] was 27.2%, the EC50 [1] was 321 nM and the Emax [2] was 104%. The IC50 [2, 3] was 8.13 nM.
